Data published in PubChem BioAssay (NCI).
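1) Cells in 96-well plates. 2) Compound, 48 h, 5 concentrations. 3) Linear interpolation between surrounding doses. 4) Unreached endpoint = highest concentration. Abbreviation: GI50, concentration required for 50% inhibition of growth. The concentration for full growth arrest is given as TGI.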

Legend:
Experiment in all cases: NCI-60 cell line screen, 48 h
786-0 renal = tested on: 786-0 renal
A498 renal = tested on: A498 renal
A549 NSCLC = tested on: A549 NSCLC
ACHN renal = tested on: ACHN renal
BT-549 breast = tested on: BT-549 breast
CAKI-1 renal = tested on: CAKI-1 renal
COLO 205 colon = tested on: COLO 205 colon
DU-145 prostate = tested on: DU-145 prostate
HCC-2998 colon = tested on: HCC-2998 colon
HCT-116 colon = tested on: HCT-116 colon
HCT-15 colon = tested on: HCT-15 colon
HL-60(TB) leukemia = tested on: HL-60(TB) leukemia
HOP-62 NSCLC = tested on: HOP-62 NSCLC
HOP-92 NSCLC = tested on: HOP-92 NSCLC
HS 578T breast = tested on: HS 578T breast
HT29 colon = tested on: HT29 colon
IGROV1 ovarian = tested on: IGROV1 ovarian
K-562 leukemia = tested on: K-562 leukemia
KM12 colon = tested on: KM12 colon
LOX IMVI melanoma = tested on: LOX IMVI melanoma
M14 melanoma = tested on: M14 melanoma
MALME-3M melanoma = tested on: MALME-3M melanoma
MCF7 breast = tested on: MCF7 breast
MDA-MB-231 breast = tested on: MDA-MB-231 breast
MDA-MB-435 = tested on: MDA-MB-435
MOLT-4 leukemia = tested on: MOLT-4 leukemia
NCI-H226 lung = tested on: NCI-H226 lung
NCI-H23 lung = tested on: NCI-H23 lung
NCI-H460 lung = tested on: NCI-H460 lung
NCI-H522 lung = tested on: NCI-H522 lung
NCI/ADR-RES ovarian = tested on: NCI/ADR-RES ovarian
OVCAR-3 ovarian = tested on: OVCAR-3 ovarian
OVCAR-4 ovarian = tested on: OVCAR-4 ovarian
OVCAR-5 ovarian = tested on: OVCAR-5 ovarian
OVCAR-8 ovarian = tested on: OVCAR-8 ovarian
PC-3 prostate = tested on: PC-3 prostate
RPMI-8226 leukemia = tested on: RPMI-8226 leukemia
RXF 393 renal = tested on: RXF 393 renal
SF-268 CNS = tested on: SF-268 CNS
SF-295 CNS = tested on: SF-295 CNS
SF-539 CNS = tested on: SF-539 CNS
SK-MEL-2 melanoma = tested on: SK-MEL-2 melanoma
SK-MEL-28 melanoma = tested on: SK-MEL-28 melanoma
SK-MEL-5 melanoma = tested on: SK-MEL-5 melanoma
SK-OV-3 ovarian = tested on: SK-OV-3 ovarian
SN12C renal = tested on: SN12C renal
SNB-19 CNS = tested on: SNB-19 CNS
SNB-75 CNS = tested on: SNB-75 CNS
SR leukemia = tested on: SR leukemia
SW-620 colon = tested on: SW-620 colon
T-47D breast = tested on: T-47D breast
TK-10 renal = tested on: TK-10 renal
U251 CNS = tested on: U251 CNS
UACC-257 melanoma = tested on: UACC-257 melanoma
UACC-62 melanoma = tested on: UACC-62 melanoma
UO-31 renal = tested on: UO-31 renal

## COc1cc(-c2nn(-c3cccc(NC(=O)Nc4ccc(Cl)c(Cl)c4)c3)cc2-c2ccncc2)ccc1Cl
786-0 renal
  GI50: 1310 nM
  TGI: 4480 nM
A498 renal
  GI50: 1140 nM
  TGI: 4590 nM
A549 NSCLC
  GI50: 745 nM
  TGI: > 50000 nM
ACHN renal
  GI50: 1000 nM
  TGI: > 50000 nM
BT-549 breast
  GI50: 1680 nM
  TGI: 27600 nM
CAKI-1 renal
  GI50: 1120 nM
  TGI: 3700 nM
COLO 205 colon
  GI50: 937 nM
  TGI: 1720 nM
DU-145 prostate
  GI50: 1520 nM
  TGI: 34200 nM
HCC-2998 colon
  GI50: 1560 nM
  TGI: 6200 nM
HCT-116 colon
  GI50: 1210 nM
  TGI: > 50000 nM
HCT-15 colon
  GI50: 1230 nM
  TGI: > 50000 nM
HL-60(TB) leukemia
  GI50: 1660 nM
  TGI: > 50000 nM
HOP-62 NSCLC
  GI50: 1440 nM
  TGI: 4900 nM
HOP-92 NSCLC
  GI50: 151 nM
  TGI: 1470 nM
HS 578T breast
  GI50: 1430 nM
  TGI: > 50000 nM
HT29 colon
  GI50: 1240 nM
  TGI: 6460 nM
IGROV1 ovarian
  GI50: 1180 nM
  TGI: 3480 nM
K-562 leukemia
  GI50: 890 nM
  TGI: > 50000 nM
KM12 colon
  GI50: 811 nM
  TGI: 2770 nM
LOX IMVI melanoma
  GI50: 953 nM
  TGI: 2620 nM
M14 melanoma
  GI50: 911 nM
  TGI: 2690 nM
MALME-3M melanoma
  GI50: 926 nM
  TGI: 2420 nM
MCF7 breast
  GI50: 945 nM
  TGI: > 50000 nM
MDA-MB-231 breast
  GI50: 698 nM
  TGI: 1920 nM
MDA-MB-435
  GI50: 938 nM
  TGI: 2390 nM
MOLT-4 leukemia
  GI50: 1100 nM
  TGI: 4480 nM
NCI-H226 lung
  GI50: 1350 nM
  TGI: > 50000 nM
NCI-H23 lung
  GI50: 1410 nM
  TGI: 5190 nM
NCI-H460 lung
  GI50: 1110 nM
  TGI: > 50000 nM
NCI-H522 lung
  GI50: 811 nM
  TGI: 3100 nM
NCI/ADR-RES ovarian
  GI50: 990 nM
  TGI: 4670 nM
OVCAR-3 ovarian
  GI50: 697 nM
  TGI: 2270 nM
OVCAR-4 ovarian
  GI50: 1290 nM
  TGI: > 50000 nM
OVCAR-5 ovarian
  GI50: 2130 nM
  TGI: > 50000 nM
OVCAR-8 ovarian
  GI50: 931 nM
  TGI: 3610 nM
PC-3 prostate
  GI50: 554 nM
  TGI: 2830 nM
RPMI-8226 leukemia
  GI50: 388 nM
  TGI: 3260 nM
RXF 393 renal
  GI50: 859 nM
  TGI: 2440 nM
SF-268 CNS
  GI50: 1510 nM
  TGI: 20300 nM
SF-295 CNS
  GI50: 691 nM
  TGI: 2530 nM
SF-539 CNS
  GI50: 965 nM
  TGI: 3080 nM
SK-MEL-2 melanoma
  GI50: 1140 nM
  TGI: 2350 nM
SK-MEL-28 melanoma
  GI50: 1430 nM
  TGI: 7320 nM
SK-MEL-5 melanoma
  GI50: 741 nM
  TGI: 1490 nM
SK-OV-3 ovarian
  GI50: 1930 nM
  TGI: > 50000 nM
SN12C renal
  GI50: 1470 nM
  TGI: > 50000 nM
SNB-19 CNS
  GI50: 1720 nM
  TGI: > 50000 nM
SNB-75 CNS
  GI50: 1050 nM
  TGI: 5170 nM
SR leukemia
  GI50: 932 nM
  TGI: 2800 nM
SW-620 colon
  GI50: 1590 nM
  TGI: > 50000 nM
T-47D breast
  GI50: 1420 nM
  TGI: > 50000 nM
TK-10 renal
  GI50: 1430 nM
  TGI: 40900 nM
U251 CNS
  GI50: 820 nM
  TGI: 2470 nM
UACC-257 melanoma
  GI50: 1040 nM
  TGI: 3110 nM
UACC-62 melanoma
  GI50: 773 nM
  TGI: 1860 nM
UO-31 renal
  GI50: 845 nM
  TGI: 4960 nM
